These results are taken from patent US5364876A, “Omega-[2-(alkyl)phenyl]-2-aminoalkanoic acids as antagonists of excitatory amino acid receptors” (Guilford Pharmaceuticals Inc., priority 1992, dated 1994).

For orientation: Ki means a dissociation constant, usually derived from enzyme kinetics or from competition with a known ligand.

One assay concerns kainate receptors. The note with it: U.S. Pat. No. 4,657,899, Table I; cited from earlier work.
The subject of another assay is NMDA receptors. The settings on record: U.S. Pat. No. 4,657,899; cited from earlier work.
Assay [1] addresses KA receptors (kainic acid-induced currents). Description: Inhibition of KA-induced currents in rat brain mRNA-injected Xenopus oocytes. In kind it is cell-based. The settings on record: Xenopus oocytes injected with rat brain mRNA; IC50 converted to Ki by Cheng-Prusoff equation. As for the experimental part: (§1) Defolliculated oocytes obtained from Xenopus laevis females were injected with 30-75 ng of poly (A+) mRNA obtained from 21-day old male Sprague-Dawley rats. Oocytes were placed individually in […] of antibiotic-supplemented modified Barthes solution (MBS, containing in mM: NaCl, 88; KCl, 1.0; NaHCO3, 2.4; HEPES, 10;MgSO4, 0.82; Ca(NO3)2, 0.33) in 96-well sterile plates and cultured for 48-120 hours prior to experimentation. Oocytes were inspected every 24 hours at which time the bathing solution is replaced with fresh MBS.
(§2) For electrophysiological studies, oocytes were positioned in a small recording chamber ([…]) and superfused with antibiotic free MBS supplemented with CaCl2 (final concentration=1.4 mM). Oocytes are impaled with a single glass microelectrode, voltage clamped at -60 to -70 mV, and perfused by gravity feed at a rate of […] at room temperature. […] Antagonists are coperfused with agonists. MBS used in NMDA assays were prepared from "glycine-free", deionized water
(§3) Potencies to inhibit kainic acid-, AMPA- and […] currents are determined from concentration-response curves. IC50 values are converted to Ki values for comparison purposes using the Cheng-Prusoff equation.

Another assay concerns the target AMPA receptors. The assay is described as follows: [3H]AMPA displacement binding. The settings on record: for Ki: [3H]AMPA displacement, read-out: Receptor Potency (Ki), AMPA.
The target in another assay is GLU (NMDA receptors). The assay is described as follows: GLU receptor ligand binding (NMDA receptors). The note with it: read-out: Receptor Potency (Ki), GLU.
Assay [2] addresses T1, strychnine insensitive glycine site (Rattus norvegicus, UniProt P35439).
T1 construct: from tissue
The assay is described as follows: Strychnine insensitive glycine binding. The note with it: read-out: Receptor Potency (Ki), Glycine.

Another assay addresses KA receptor. Description: KA receptor ligand binding. Set-up: species or system rat.
Assay [3] concerns the target AMPA receptors (AMPA-induced currents). The assay is described as follows: Inhibition of AMPA-induced currents in rat brain mRNA-injected Xenopus oocytes. The settings on record: Xenopus oocytes injected with rat brain mRNA; IC50 converted to Ki by Cheng-Prusoff equation. In kind it is cell-based. As for the experimental part: as §1, §2, §3
Assay [4] has as its target CNQX labeled non-NMDA receptors. The assay is described as follows: CNQX-labeled non-NMDA receptor binding. The settings on record: read-out: Receptor Potency (Ki), CNQX.

The structures appear in SMILES notation. Several values for one entry are separate records, joined by “and”; a condition that tells them apart may be missing. Equal values may be shown once.

Regarding `NC(Cc1ccccc1CCP(=O)(O)O)C(=O)O` (stereo not drawn) [2-amino-3-[2-(2-phosphonoethyl)phenyl]propanoic acid], the “binding affinity for kainate receptors” value in the assay with kainate receptors is given as “very low binding affinity”. In addition, the NMDA antagonist activity entry in the assay on NMDA receptors was “antagonists of NMDA”.

Consider `NC(Cc1ccccc1CCCP(=O)(O)O)C(=O)O` (stereo not drawn) [2-amino-3-[2-(3-phosphonopropyl)phenyl]propanoic acid], for which the “binding affinity for kainate receptors” value with kainate receptors is “very low binding affinity”. Further, in the assay on NMDA receptors, the NMDA antagonist activity entry was “antagonists of NMDA”.

`NC(Cc1ccccc1CP(=O)(O)O)C(=O)O` (stereo not drawn) [2-amino-3-[2-phosphonomethylphenyl]propanoic acid]: in the assay with kainate receptors, the “binding affinity for kainate receptors” value is “very low binding affinity”. In addition, the NMDA antagonist activity entry with NMDA receptors is “antagonists of NMDA”.

Take `NC(CCCc1ccccc1CP(=O)(O)O)C(=O)O` (stereo not drawn) [2-amino-5-[2-phosphonomethylphenyl]pentanoic acid]: the “binding affinity for kainate receptors” value with kainate receptors is listed as “very low binding affinity”. The NMDA antagonist activity entry in the assay with NMDA receptors is given as “antagonists of NMDA”.

Regarding `NC(Cc1cc(F)ccc1CCC(=O)O)C(=O)O` (stereo not drawn) [Example 5a], the “Ki, inhibition of KA-induced currents” value in assay [1] is greater than 50 µM. For the same compound, the Ki was 168 µM on AMPA receptors, greater than 300 µM on GLU (NMDA receptors) and 41 µM in assay [2]. In addition, at KA receptor, the “Receptor Potency (Ki), KA” value stood at 475 µM.

For `NC(Cc1cc(Cl)ccc1CCC(=O)O)C(=O)O` (stereo not drawn) [Example 5b], the “Ki, inhibition of KA-induced currents” value in assay [1] came out at 32 µM. The “selectivity for AMPA versus NMDA receptors” value in the assay with AMPA receptors (Ki GLU >300 μM versus Ki AMPA 51 μM) is “at least six-fold selective”. For the same compound, the Ki on AMPA receptors was 51 µM; on GLU (NMDA receptors), greater than 300 µM; in [2], 9 µM; in assay [3] it was 96 µM. Besides, the “Receptor Potency (Ki), KA” value at KA receptor came out at 506 µM.

Consider `Cc1cc(C)c(CCC(=O)O)c(C[C@H](N)C(=O)O)c1` [Example 5c, 3,5-Dimethyl-2-(2'-carboxyethyl)phenylalanine], for which, in [1], the “Ki, inhibition of KA-induced currents” value came out at 84 µM. Moreover, the Ki at GLU (NMDA receptors) was greater than 1000 µM; in [2], 211 µM.

For `Cc1ccc(CCCC(=O)O)c(C[C@H](N)C(=O)O)c1` [Example 26, 5-Methyl-2-(3'-carboxypropyl) phenylalanine], the “Ki, inhibition of KA-induced currents” value in assay [1] is 13 µM and 13.3 µM. In addition, the Ki on GLU (NMDA receptors) was greater than 1000 µM; in [2], 2400 µM; in assay [4], 8.4 µM.
